Assay: ICH stability study of psilocybin batches (appearance, water content, purity, assay)

CN(C)CCc1c[nH]c2cccc(OP(=O)(O)O)c12 [Batch 170231]
Impurities by HPLC: RRT 1.62 (Psilocin) (T = 6 months, 2-8° C.): 0.35%
Impurities by HPLC: RRT 1.70 (T = 6 months, 2-8° C.): LT 0.05%
Impurities by HPLC: line without printed RRT (after RRT0.69) (T = 6 months, 2-8° C.): 0.07%
Impurity at RRT 1.89 (T = 6 months, 2-8° C.): LT 0.05%
Impurity at RRT 2.45 (T = 6 months, 2-8° C.): LT 0.05%
Total Impurities (T = 6 months, 2-8° C.): 0.80%
Water content by loss on drying (T = 6 months, 2-8° C.): 0.06% ^w/w % w/w
Appearance (T = 6 months, 25° C./60% RH): An off white solid.
Assay by HPLC (on a dry basis) (T = 6 months, 25° C./60% RH): 98.04% ^w/w % w/w
Chemical Purity By HPLC (T = 6 months, 25° C./60% RH): 99.19%
Impurities LT 0.05% (T = 6 months, 25° C./60% RH): 0.34%
Impurities by HPLC: RRT0.69 (T = 6 months, 25° C./60% RH): 0.06%
Impurities by HPLC: RRT 1.49 (T = 6 months, 25° C./60% RH): LT 0.05%
Impurities by HPLC: RRT 1.62 (Psilocin) (T = 6 months, 25° C./60% RH): 0.34%
Impurities by HPLC: RRT 1.70 (T = 6 months, 25° C./60% RH): LT 0.05%
Impurities by HPLC: line without printed RRT (after RRT0.69) (T = 6 months, 25° C./60% RH): 0.07%
Impurity at RRT 1.89 (T = 6 months, 25° C./60% RH): LT 0.05%
Impurity at RRT 2.45 (T = 6 months, 25° C./60% RH): LT 0.05%
Total Impurities (T = 6 months, 25° C./60% RH): 0.81%
Water content by loss on drying (T = 6 months, 25° C./60% RH): 0.32% ^w/w % w/w
Appearance (T = 6 months, 40° C./75% RH): An off white solid.
Assay by HPLC (on a dry basis) (T = 6 months, 40° C./75% RH): 100.10% ^w/w % w/w
Chemical Purity By HPLC (T = 6 months, 40° C./75% RH): 99.12%
Impurities LT 0.05% (T = 6 months, 40° C./75% RH): 0.36%
Impurities by HPLC: RRT0.69 (T = 6 months, 40° C./75% RH): 0.06%
Impurities by HPLC: RRT 1.49 (T = 6 months, 40° C./75% RH): LT 0.05%
Impurities by HPLC: RRT 1.62 (Psilocin) (T = 6 months, 40° C./75% RH): 0.38%
Impurities by HPLC: RRT 1.70 (T = 6 months, 40° C./75% RH): LT 0.05%
Impurities by HPLC: line without printed RRT (after RRT0.69) (T = 6 months, 40° C./75% RH): 0.08%
Impurity at RRT 1.89 (T = 6 months, 40° C./75% RH): LT 0.05%
Impurity at RRT 2.45 (T = 6 months, 40° C./75% RH): LT 0.05%
Total Impurities (T = 6 months, 40° C./75% RH): 0.88%
Water content by loss on drying (T = 6 months, 40° C./75% RH): 2.26% ^w/w % w/w
Appearance (T = 9 months, 2-8° C.): An off white solid.
Assay by HPLC (on a dry basis) (T = 9 months, 2-8° C.): 97.53% ^w/w % w/w
Chemical Purity By HPLC (T = 9 months, 2-8° C.): 99.16%
Impurities by HPLC: RRT0.69 (T = 9 months, 2-8° C.): LT 0.05%
Impurities by HPLC: RRT 1.49 (T = 9 months, 2-8° C.): 0.07%
Impurities by HPLC: RRT 1.62 (Psilocin) (T = 9 months, 2-8° C.): 0.06%
Impurities by HPLC: RRT 1.70 (T = 9 months, 2-8° C.): 0.37%
Impurities by HPLC: line without printed RRT (after RRT0.69) (T = 9 months, 2-8° C.): LT 0.05%
Impurity at RRT 1.89 (T = 9 months, 2-8° C.): LT 0.05%
Impurity at RRT 2.45 (T = 9 months, 2-8° C.): LT 0.05%
Total Impurities (T = 9 months, 2-8° C.): 0.84%
Water content by loss on drying (T = 9 months, 2-8° C.): 0.21% ^w/w % w/w
Appearance (T = 9 months, 25° C./60% RH): An off white solid.
Assay by HPLC (on a dry basis) (T = 9 months, 25° C./60% RH): 98.12% ^w/w % w/w
Chemical Purity By HPLC (T = 9 months, 25° C./60% RH): 99.16%
Impurities by HPLC: RRT0.69 (T = 9 months, 25° C./60% RH): LT 0.05%
Impurities by HPLC: RRT 1.49 (T = 9 months, 25° C./60% RH): 0.05%
Impurities by HPLC: RRT 1.62 (Psilocin) (T = 9 months, 25° C./60% RH): 0.06%
Impurities by HPLC: RRT 1.70 (T = 9 months, 25° C./60% RH): 0.37%
Impurities by HPLC: line without printed RRT (after RRT0.69) (T = 9 months, 25° C./60% RH): LT 0.05%
Impurity at RRT 1.89 (T = 9 months, 25° C./60% RH): LT 0.05%
Impurity at RRT 2.45 (T = 9 months, 25° C./60% RH): LT 0.05%
Total Impurities (T = 9 months, 25° C./60% RH): 0.84%
Water content by loss on drying (T = 9 months, 25° C./60% RH): 0.10% ^w/w % w/w
Appearance (T = 12 months, 2-8° C.): An off white solid.
Assay by HPLC (on a dry basis) (T = 12 months, 2-8° C.): 99.63% ^w/w % w/w
Chemical Purity By HPLC (T = 12 months, 2-8° C.): 99.25%
Impurities LT 0.05% (T = 12 months, 2-8° C.): 0.38%
Impurities by HPLC: RRT0.69 (T = 12 months, 2-8° C.): LT 0.05%
Impurities by HPLC: RRT 1.49 (T = 12 months, 2-8° C.): LT 0.05%
Impurities by HPLC: RRT 1.62 (Psilocin) (T = 12 months, 2-8° C.): 0.37%
Impurities by HPLC: RRT 1.70 (T = 12 months, 2-8° C.): LT 0.05%
Impurity at RRT 1.89 (T = 12 months, 2-8° C.): LT 0.05%
Impurity at RRT 2.45 (T = 12 months, 2-8° C.): LT 0.05%
Total Impurities (T = 12 months, 2-8° C.): 0.75%
Water content by loss on drying (T = 12 months, 2-8° C.): 0.49% ^w/w % w/w
Appearance (T = 12 months, 25° C./60% RH): An off white solid.
Assay by HPLC (on a dry basis) (T = 12 months, 25° C./60% RH): 98.97% ^w/w % w/w
Chemical Purity By HPLC (T = 12 months, 25° C./60% RH): 99.25%
Impurities LT 0.05% (T = 12 months, 25° C./60% RH): 0.38%
Impurities by HPLC: RRT0.69 (T = 12 months, 25° C./60% RH): LT 0.05%
Impurities by HPLC: RRT 1.49 (T = 12 months, 25° C./60% RH): LT 0.05%
Impurities by HPLC: RRT 1.62 (Psilocin) (T = 12 months, 25° C./60% RH): 0.37%
Impurities by HPLC: RRT 1.70 (T = 12 months, 25° C./60% RH): LT 0.05%
Impurity at RRT 2.45 (T = 12 months, 25° C./60% RH): LT 0.05%
Total Impurities (T = 12 months, 25° C./60% RH): 0.75%
Water content by loss on drying (T = 12 months, 25° C./60% RH): 0.61% ^w/w % w/w

Reference: patent US12662498B2 (priority 2017, dated 2026)
